Test results reported in ChEMBL document CHEMBL5653631, “A Potent and Selective ULK1 Inhibitor Suppresses Autophagy and Sensitizes Cancer Cells to Nutrient Stress” (iScience, 2018).

Legend:
[1] = biological target: Platelet-derived growth factor receptor beta (Homo sapiens) (UniProt P09619); assay: Inhibition of human recombinant PDGFRb at 500 nM in presence of ATP by radiometric assay relative to control
[2] = biological target: Tyrosine-protein kinase Fgr (Homo sapiens) (UniProt P09769); assay: Inhibition of human recombinant FGR at 500 nM in presence of ATP by radiometric assay relative to control
[3] = biological target: Leukocyte tyrosine kinase receptor (Homo sapiens) (UniProt P29376); assay: Inhibition of human recombinant LTK at 500 nM related to control ULK1
[4] = biological target: Ribosomal protein S6 kinase alpha-6 (Homo sapiens) (UniProt Q9UK32); assay: Inhibition of human recombinant RSK4 at 15 nM related to control ULK1
[5] = biological target: Epidermal growth factor receptor (Homo sapiens) (UniProt P00533); assay: Inhibition of human recombinant EGFR at 15 nM in presence of ATP by radiometric assay relative to control
[6] = biological target: Serine/threonine-protein kinase 24 (Homo sapiens) (UniProt Q9Y6E0); assay: Inhibition of human recombinant MST3 at 15 nM related to control ULK1
[7] = biological target: Mitogen-activated protein kinase kinase kinase kinase 1 (Homo sapiens) (UniProt Q92918); assay: Inhibition of human recombinant HPK1 at 40 nM related to control ULK1
[8] = biological target: T1, Mitogen-activated protein kinase kinase kinase 3 (Homo sapiens) (UniProt Q99759); assay: Inhibition of human recombinant MAP3K3 at 40 nM related to control ULK1
T1 sequence (whole entry): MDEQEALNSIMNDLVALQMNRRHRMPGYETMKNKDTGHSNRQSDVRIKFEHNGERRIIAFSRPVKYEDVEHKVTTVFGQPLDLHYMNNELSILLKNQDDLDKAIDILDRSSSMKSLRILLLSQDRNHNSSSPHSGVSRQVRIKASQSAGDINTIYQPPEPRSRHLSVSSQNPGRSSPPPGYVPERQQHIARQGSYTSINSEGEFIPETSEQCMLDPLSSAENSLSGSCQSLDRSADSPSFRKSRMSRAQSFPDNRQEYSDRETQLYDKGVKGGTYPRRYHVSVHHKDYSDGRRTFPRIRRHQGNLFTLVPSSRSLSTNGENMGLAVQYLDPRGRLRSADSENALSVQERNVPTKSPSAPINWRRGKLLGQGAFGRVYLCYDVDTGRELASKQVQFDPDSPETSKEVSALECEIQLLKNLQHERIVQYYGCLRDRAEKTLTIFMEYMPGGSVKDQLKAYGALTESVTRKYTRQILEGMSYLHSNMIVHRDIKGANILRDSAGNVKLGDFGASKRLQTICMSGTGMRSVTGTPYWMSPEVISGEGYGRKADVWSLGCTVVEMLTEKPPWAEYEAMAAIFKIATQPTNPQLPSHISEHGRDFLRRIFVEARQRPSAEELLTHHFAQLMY

[9] = biological target: T2, Interleukin-1 receptor-associated kinase 4 (Homo sapiens) (UniProt Q9NWZ3); assay: Inhibition of human recombinant IRAK4 at 40 nM in presence of ATP by radiometric assay relative to control
T2 sequence (whole entry): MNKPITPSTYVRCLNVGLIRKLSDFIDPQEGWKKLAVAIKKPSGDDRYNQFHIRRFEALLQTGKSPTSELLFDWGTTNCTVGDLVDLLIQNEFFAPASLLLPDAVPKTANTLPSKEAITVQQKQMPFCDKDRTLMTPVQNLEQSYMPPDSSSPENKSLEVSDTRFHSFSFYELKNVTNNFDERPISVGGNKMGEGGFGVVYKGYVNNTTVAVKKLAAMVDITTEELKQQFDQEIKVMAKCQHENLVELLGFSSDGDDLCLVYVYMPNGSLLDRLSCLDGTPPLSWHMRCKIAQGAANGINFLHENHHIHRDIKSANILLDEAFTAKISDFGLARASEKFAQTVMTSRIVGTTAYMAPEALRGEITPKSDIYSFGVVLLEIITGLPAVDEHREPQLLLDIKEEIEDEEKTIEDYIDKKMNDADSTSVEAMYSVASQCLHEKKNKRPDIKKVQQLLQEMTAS

[10] = biological target: T3, NUAK family SNF1-like kinase 1 (Homo sapiens) (UniProt O60285); assay: Inhibition of human recombinant NuaK1 at 40 nM related to control ULK1
T3 sequence (whole entry): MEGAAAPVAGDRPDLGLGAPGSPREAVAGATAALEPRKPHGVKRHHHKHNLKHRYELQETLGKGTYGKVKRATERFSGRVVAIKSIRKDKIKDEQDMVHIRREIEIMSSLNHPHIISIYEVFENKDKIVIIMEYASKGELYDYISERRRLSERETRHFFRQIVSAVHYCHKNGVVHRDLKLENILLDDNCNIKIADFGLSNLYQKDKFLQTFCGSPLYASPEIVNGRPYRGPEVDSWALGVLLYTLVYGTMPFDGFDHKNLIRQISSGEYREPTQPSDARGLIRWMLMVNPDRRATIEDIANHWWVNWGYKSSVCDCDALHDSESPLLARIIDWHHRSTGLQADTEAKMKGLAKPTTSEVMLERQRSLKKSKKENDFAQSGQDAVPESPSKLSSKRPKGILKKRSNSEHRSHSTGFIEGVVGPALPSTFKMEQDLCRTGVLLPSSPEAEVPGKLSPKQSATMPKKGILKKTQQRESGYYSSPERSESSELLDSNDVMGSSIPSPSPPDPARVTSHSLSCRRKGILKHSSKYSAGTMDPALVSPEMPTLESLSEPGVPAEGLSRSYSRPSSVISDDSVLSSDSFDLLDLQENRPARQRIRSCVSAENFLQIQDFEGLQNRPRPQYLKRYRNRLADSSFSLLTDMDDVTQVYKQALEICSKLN

Sequence of Mitogen-activated protein kinase kinase kinase kinase 1 (Homo sapiens) (Q92918 whole entry, looked up): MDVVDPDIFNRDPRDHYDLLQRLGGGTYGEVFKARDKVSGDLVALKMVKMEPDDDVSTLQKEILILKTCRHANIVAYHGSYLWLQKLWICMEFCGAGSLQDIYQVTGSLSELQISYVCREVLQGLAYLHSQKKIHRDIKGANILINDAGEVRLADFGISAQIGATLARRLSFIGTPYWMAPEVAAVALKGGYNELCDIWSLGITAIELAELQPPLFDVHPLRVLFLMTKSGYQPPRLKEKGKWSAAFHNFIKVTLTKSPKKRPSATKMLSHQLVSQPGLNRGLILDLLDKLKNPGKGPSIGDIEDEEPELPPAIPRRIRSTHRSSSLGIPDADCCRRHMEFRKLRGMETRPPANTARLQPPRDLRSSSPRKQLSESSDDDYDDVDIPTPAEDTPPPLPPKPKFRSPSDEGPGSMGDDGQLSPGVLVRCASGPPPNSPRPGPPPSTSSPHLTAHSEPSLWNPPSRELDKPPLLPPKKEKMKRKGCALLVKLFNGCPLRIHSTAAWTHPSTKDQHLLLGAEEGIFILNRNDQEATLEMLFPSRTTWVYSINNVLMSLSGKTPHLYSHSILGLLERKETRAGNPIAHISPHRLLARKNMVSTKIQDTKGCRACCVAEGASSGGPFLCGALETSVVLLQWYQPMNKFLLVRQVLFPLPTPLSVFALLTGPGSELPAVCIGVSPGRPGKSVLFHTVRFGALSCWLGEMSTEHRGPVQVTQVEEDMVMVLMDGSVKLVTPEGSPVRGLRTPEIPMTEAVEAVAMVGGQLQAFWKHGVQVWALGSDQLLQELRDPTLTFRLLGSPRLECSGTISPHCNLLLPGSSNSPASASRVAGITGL
Sequence of Platelet-derived growth factor receptor beta (Homo sapiens) (P09619 whole entry): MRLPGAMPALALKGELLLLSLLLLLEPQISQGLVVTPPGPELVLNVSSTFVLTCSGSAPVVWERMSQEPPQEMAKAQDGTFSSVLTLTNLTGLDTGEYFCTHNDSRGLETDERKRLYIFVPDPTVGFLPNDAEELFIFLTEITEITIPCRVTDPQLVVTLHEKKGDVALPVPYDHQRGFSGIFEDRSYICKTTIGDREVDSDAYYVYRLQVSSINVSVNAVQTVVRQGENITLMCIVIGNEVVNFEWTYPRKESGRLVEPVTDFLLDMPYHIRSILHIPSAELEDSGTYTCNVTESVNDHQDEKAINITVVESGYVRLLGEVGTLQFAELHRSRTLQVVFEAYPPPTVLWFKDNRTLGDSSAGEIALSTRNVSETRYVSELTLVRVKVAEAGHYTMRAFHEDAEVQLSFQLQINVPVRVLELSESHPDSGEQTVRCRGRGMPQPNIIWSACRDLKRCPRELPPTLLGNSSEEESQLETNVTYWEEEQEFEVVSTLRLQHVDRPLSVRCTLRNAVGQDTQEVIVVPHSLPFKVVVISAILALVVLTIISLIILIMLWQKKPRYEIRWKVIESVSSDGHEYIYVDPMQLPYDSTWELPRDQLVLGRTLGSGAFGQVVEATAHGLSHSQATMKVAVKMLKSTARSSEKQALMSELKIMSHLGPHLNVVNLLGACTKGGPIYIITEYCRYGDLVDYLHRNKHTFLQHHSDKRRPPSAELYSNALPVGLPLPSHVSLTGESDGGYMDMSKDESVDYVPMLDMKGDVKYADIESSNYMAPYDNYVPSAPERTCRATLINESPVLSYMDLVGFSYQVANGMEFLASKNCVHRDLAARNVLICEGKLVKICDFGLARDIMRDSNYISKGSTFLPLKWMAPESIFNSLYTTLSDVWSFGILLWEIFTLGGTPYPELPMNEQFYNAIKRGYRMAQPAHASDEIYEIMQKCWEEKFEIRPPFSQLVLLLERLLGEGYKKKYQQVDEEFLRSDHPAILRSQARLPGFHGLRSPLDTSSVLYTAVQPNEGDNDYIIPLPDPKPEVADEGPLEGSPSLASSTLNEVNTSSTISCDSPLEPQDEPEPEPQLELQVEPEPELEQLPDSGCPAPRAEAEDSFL
Sequence of Serine/threonine-protein kinase 24 (Homo sapiens) (Q9Y6E0 whole entry, looked up): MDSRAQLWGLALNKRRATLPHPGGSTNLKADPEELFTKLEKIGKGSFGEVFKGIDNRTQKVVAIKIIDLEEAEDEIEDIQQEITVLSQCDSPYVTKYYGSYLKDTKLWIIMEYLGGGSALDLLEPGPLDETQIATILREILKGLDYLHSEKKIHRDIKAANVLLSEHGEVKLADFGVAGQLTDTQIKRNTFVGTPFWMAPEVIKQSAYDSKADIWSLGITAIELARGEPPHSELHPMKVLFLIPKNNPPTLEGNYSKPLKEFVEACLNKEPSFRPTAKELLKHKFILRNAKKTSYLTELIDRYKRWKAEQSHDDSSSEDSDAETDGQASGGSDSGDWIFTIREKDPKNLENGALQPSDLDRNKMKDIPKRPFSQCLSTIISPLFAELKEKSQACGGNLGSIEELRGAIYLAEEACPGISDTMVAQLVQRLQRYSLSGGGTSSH
Sequence of Tyrosine-protein kinase Fgr (Homo sapiens) (P09769 2-529 limits assumed): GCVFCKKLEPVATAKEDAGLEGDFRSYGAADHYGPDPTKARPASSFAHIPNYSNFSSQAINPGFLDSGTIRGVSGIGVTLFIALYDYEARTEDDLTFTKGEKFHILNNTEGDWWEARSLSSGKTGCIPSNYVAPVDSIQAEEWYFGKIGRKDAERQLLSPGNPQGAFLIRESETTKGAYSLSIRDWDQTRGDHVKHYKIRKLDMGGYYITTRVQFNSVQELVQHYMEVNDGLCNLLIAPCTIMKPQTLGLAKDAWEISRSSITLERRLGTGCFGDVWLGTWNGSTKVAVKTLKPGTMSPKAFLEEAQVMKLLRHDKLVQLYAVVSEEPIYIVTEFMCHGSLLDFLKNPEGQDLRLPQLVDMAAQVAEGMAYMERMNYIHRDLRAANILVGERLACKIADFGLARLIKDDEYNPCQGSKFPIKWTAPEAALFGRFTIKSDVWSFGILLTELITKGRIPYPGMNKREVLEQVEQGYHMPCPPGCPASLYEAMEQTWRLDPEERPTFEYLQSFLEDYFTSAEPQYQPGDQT
Sequence of Ribosomal protein S6 kinase alpha-6 (Homo sapiens) (Q9UK32 whole entry): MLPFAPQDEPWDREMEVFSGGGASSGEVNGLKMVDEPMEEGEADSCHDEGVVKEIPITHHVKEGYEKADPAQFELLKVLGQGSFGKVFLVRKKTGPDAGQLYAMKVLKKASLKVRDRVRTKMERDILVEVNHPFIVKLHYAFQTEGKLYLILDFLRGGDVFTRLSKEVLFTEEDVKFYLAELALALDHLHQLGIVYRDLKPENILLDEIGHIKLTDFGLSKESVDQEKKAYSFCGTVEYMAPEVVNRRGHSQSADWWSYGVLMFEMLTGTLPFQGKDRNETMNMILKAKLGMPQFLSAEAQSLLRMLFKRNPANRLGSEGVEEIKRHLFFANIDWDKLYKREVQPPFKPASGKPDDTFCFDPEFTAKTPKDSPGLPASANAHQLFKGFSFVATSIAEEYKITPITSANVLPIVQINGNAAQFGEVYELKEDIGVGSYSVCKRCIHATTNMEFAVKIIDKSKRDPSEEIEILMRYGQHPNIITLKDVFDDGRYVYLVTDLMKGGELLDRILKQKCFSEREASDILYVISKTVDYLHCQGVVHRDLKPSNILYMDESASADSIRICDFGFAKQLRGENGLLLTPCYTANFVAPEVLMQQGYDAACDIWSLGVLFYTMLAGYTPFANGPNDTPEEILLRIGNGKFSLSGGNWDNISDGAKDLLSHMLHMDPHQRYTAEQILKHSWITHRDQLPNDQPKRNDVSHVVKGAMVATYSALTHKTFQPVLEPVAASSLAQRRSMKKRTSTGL
Sequence of Epidermal growth factor receptor (Homo sapiens) (P00533 whole entry): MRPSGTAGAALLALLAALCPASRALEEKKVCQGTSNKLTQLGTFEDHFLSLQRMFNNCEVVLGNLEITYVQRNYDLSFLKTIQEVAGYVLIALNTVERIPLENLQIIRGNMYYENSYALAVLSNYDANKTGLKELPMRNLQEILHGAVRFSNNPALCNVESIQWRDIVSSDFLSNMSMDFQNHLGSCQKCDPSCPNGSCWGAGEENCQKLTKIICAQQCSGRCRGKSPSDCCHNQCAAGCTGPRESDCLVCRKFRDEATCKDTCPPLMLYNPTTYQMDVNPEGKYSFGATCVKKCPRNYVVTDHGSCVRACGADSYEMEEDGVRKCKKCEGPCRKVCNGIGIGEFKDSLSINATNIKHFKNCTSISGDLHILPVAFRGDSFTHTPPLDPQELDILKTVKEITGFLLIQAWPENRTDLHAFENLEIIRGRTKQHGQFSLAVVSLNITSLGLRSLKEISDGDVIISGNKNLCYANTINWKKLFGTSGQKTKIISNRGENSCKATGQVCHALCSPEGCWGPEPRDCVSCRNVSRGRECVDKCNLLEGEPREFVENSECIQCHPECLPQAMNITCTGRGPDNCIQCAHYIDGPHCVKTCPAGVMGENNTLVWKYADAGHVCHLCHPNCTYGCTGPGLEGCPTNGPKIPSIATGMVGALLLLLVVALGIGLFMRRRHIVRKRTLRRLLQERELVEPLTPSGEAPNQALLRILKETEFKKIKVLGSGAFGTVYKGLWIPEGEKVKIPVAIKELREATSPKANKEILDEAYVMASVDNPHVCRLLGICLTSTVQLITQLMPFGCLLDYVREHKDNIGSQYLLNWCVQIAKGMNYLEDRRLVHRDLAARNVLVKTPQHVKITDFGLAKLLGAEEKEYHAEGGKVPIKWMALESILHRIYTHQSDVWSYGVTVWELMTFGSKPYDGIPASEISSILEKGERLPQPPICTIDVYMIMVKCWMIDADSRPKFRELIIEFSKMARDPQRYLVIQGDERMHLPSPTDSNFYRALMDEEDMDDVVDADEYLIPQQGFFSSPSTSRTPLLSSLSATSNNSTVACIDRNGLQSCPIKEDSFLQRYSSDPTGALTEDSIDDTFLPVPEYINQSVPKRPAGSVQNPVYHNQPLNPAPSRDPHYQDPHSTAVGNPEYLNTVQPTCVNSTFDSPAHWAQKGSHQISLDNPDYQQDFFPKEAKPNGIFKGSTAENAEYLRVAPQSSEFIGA

CNC(=O)c1ccccc1Oc1nc(Nc2cc(OC)c(OC)c(OC)c2)ncc1Br
inhibition [1]: 0% | inhibition [2]: 8% | fold change (FC) [3]: 0.04

CC(C)[C@H](NC(=O)c1cc(-c2cnn3cc(-c4ccc(OCCN5CCCCC5)cc4)cnc23)cs1)C(F)(F)F
fold change (FC) [4]: 0 | inhibition [5]: 3% | fold change (FC) [6]: 0

O=C(N[C@@H](C1CC1)C(F)(F)F)c1cc(-c2cnn3cc(-c4ccc(F)cc4)cnc23)cs1
fold change (FC) [7]: 0 | fold change (FC) [8]: 0 | inhibition [9]: 0% | fold change (FC) [10]: 0.07
